Reference: patent publication US20210300943A1, “OGA INHIBITOR COMPOUNDS” (Janssen Pharmaceutica NV, priority 2018, published 2021)

Tests used:
[1] = molecular target: T1, OGA (Homo sapiens, UniProt O60502); assay: OGA cellular assay (ICC detection of O-GlcNAcylated proteins in HEK293 cells inducible for P301L mutant human Tau); format: cell-based; details: for Emax: HEK293, HEK293 cells inducible for P301L mutant human Tau; for EC50: read-out: Cellular hOGA, pEC50 (converted)
T1 construct: endogenous in cells; host or cells: HEK293 cells inducible for P301L mutant human Tau (2N4R)
T1 sequence (O60502 1-916): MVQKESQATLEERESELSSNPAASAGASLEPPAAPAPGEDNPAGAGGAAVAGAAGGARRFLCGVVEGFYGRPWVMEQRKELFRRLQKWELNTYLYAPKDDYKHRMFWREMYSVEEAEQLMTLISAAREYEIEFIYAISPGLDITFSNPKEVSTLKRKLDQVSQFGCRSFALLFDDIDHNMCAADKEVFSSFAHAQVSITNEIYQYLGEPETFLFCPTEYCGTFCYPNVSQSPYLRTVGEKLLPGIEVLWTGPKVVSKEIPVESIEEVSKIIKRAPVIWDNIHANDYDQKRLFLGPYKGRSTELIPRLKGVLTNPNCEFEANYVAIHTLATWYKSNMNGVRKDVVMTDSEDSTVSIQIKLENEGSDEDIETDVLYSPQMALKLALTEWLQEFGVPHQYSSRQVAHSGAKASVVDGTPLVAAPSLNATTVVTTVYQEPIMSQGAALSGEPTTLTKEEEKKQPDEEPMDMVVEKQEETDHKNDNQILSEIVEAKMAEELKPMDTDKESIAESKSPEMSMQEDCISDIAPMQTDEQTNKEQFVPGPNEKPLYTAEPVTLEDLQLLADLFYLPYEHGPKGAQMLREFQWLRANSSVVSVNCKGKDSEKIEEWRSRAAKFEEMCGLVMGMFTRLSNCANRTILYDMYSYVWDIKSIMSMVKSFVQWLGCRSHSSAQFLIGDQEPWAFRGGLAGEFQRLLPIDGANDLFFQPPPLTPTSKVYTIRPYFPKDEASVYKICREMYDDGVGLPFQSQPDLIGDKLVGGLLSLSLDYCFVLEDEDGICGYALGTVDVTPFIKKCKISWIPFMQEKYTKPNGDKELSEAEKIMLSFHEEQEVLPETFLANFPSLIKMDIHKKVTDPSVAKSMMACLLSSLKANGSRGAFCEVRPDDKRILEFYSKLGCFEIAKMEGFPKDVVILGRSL
How it was run: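 HEK293 cells inducible for P301L Tau, in low-glucose assay medium, treated 6 h with compound at 0.2% DMSO. O-GlcNAcylated proteins detected by CTD110.6 immunostaining, imaged at 488 nm with Hoechst nuclear counts for toxicity. IC50 from non-linear regression, 200 uM Thiamet G as maximum.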

[2] = molecular target: T2, recombinant human Meningioma Expressed Antigen 5 (MGEA5), also referred to as O-GlcNAcase (OGA) (Homo sapiens, UniProt O60502); assay: OGA biochemical assay (inhibition of FM-GlcNAc hydrolysis, fluorescence); details: for Emax: read-out: Enzymatic Emax (%); for IC50: read-out: Enzymatic hOGA, pIC50 (converted)
T2 construct: Full length OGA enzyme was purchased at OnGene (cat #TP322411); purchased OnGene (so in the source)
T2 sequence (O60502 1-916): T1 sequence (O60502 1-916)
How it was run: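 Full-length recombinant OGA (2 nM) pre-incubated with compound 60 min at room temperature, then FM-GlcNAc (100 µM final) added in citrate/phosphate buffer pH 7.2 with 0.005% Tween-20. After 6 h at room temperature, stopped with carbonate pH 11.0; fluorescein read at 485/538 nm; IC50 and Hill coefficient from curve fit.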

[3] = maximal effect, Thiamet G 200 uM as maximum
[4] = HEK293 cells inducible for P301L mutant human Tau, 6 hours incubation

| Compound | Emax [1, 3] [%] | EC50 [1, 4] [µM] | Emax ([2]; maximal effect) [%] | IC50 [2] [µM] | Cellular hOGA; pEC50 [1, 4] | Cellular Emax (%) ([1]; HEK293 cells inducible for P301L mutant human Tau, maximal effect, Thiamet G 200 uM as maximum) | Enzymatic hOGA; pIC50 [2] | Enzymatic Emax (%) ([2]; maximal effect) |
| --- | --- | --- | --- | --- | --- | --- | --- | --- |
| Cc1cc(NCC2CCCN(C(C)c3ccc4c(c3)OCC4)C2)cc(C)n1 (stereo not drawn) [Product 22] | 82 | 0.00794 | 104 | 0.00794 |  |  |  |  |
| COc1cc(NCC2CCCN(C(C)c3ccc4c(n3)OCCO4)C2)cc(C)n1 (stereo not drawn) [Product 23] | 81 | 0.00794 | 100 | 0.01 |  |  |  |  |
| COc1cc(NCC2CCCN(C(C)c3ccc4c(c3)OCC4)C2)cc(C)n1 (stereo not drawn) [Product 30] | 81 | 0.00631 | 104 | 0.00794 |  |  |  |  |
| Cc1cc(NCC2CCCN(C(C)c3ccc4c(c3)OCC4)C2)cc(C(F)(F)F)n1 (stereo not drawn) [Product 36] | 88 | 0.126 | 101 |  |  |  |  |  |
| Cc1cc(C[C@H]2CCCN(Cc3ccc4c(n3)OCCO4)C2)cc(C)n1 [Product 43] | 60 | 0.501 | 101 | 0.0631 |  |  |  |  |
| Cc1cc(C[C@H]2CCCN(Cc3ccc4c(c3)OCCN4C)C2)cc(C)n1 [Product 48] | 5 | > 1 | 93 | 0.501 |  |  |  |  |
| COc1cc(C[C@H]2CCCN([C@H](C)c3ccc4c(n3)OCCO4)C2)cc(C)n1 [Product 64] | 97 | 0.0158 | 101 | 0.00398 |  |  |  |  |
| Cc1cc(NCC2CCCN(C(C)c3cc4c(cc3F)OCCO4)C2)cc(C(F)(F)F)n1 (stereo not drawn) [Product 99] | 65 | 0.0251 | 105 | 0.00525 |  |  |  |  |
| Cc1cc(C[C@H]2CCCN(C(C)c3cnc4c(c3)OCCO4)C2)cc(C)n1 (stereo partly drawn) [Product 130] | 83 | 0.158 | 101 | 0.00794 |  |  |  |  |
| Cc1cnc(OC2CCCN(C(C)c3ccc4c(n3)OCCO4)C2)c(C)n1 (stereo not drawn) [Product 133] | 62 | 0.501 | 103 | 0.0158 |  |  |  |  |
| Cc1cc(OC2CCCN(C(C)c3ccc4c(n3)OCCO4)C2)cc(C)n1 (stereo not drawn) [Product 136] | 60 | 0.631 | 101 | 0.00398 |  |  |  |  |
| Cc1cc(C2CCCN(C(C)c3cnc4c(c3)OCCN4)C2)cc(C)n1 (stereo not drawn) [Product 137] | 83 | 0.0501 | 101 | 0.02 |  |  |  |  |
| Cc1cc(OC2CCCN(C(C)c3ccc4c(n3)OCCO4)C2)cc(C(F)(F)F)n1 (stereo not drawn) [Product 138] | 16 | > 1 | 101 | 0.126 |  |  |  |  |
| Cc1cc(OC[C@@H]2CCCN(C(C)c3cnc4c(c3)OCCN4)C2)cc(C)n1 (stereo partly drawn) [Product 145] | 35 | > 1 | 99 | 0.251 |  |  |  |  |
| Cc1cc(OC[C@H]2CCCN(C(C)c3cnc4c(c3)OCCN4)C2)cc(C)n1 (stereo partly drawn) [Product 146] | 79 | 0.01 | 99 | 0.00631 |  |  |  |  |
| Cc1cc(OC[C@H]2CCCN(C(C)c3cnc4c(c3)OCCN4)C2)cc(C)n1 (stereo partly drawn) [Product 147] |  |  |  |  | 8.0 | 80 | 8.2 | 100 |
| Cc1cc(C2CCCN(C(C)c3nc4c(cc3F)CCO4)C2)cc(C)n1 (stereo not drawn) [Product 148] | 78 | 0.01 | 98 | 0.0158 |  |  |  |  |

More lines, now with the values ahead:

| Emax [1, 3] [%] | EC50 [1, 4] [µM] | Emax ([2]; maximal effect) [%] | IC50 [2] [µM] | Cellular hOGA; pEC50 [1, 4] | Cellular Emax (%) ([1]; HEK293 cells inducible for P301L mutant human Tau, maximal effect, Thiamet G 200 uM as maximum) | Enzymatic hOGA; pIC50 [2] | Enzymatic Emax (%) ([2]; maximal effect) | Compound |
| --- | --- | --- | --- | --- | --- | --- | --- | --- |
| 85 | 0.00692 | 102 | 0.00631 |  |  |  |  | Cc1cc(C2CCCN(C(C)c3nc4c(cc3F)OCCO4)C2)cc(C)n1 (stereo not drawn) [Product 151] |
| 94 | 0.00398 | 102 | 0.00398 |  |  |  |  | Cc1cc(OC[C@H]2CCCN(C(C)c3nc4c(cc3F)OCCO4)C2)cc(C)n1 (stereo partly drawn) [Product 152] |
| 94 | 0.00251 | 102 | 0.00158 |  |  |  |  | Cc1cc(OC[C@H]2CCCN([C@@H](C)c3nc4c(cc3F)OCCO4)C2)cc(C)n1 [Product 153] |
| 86 | 0.126 | 101 | 0.0501 |  |  |  |  | Cc1cc(OC[C@H]2CCCN([C@H](C)c3nc4c(cc3F)OCCO4)C2)cc(C)n1 [Product 154] |
| 83 | 0.0158 | 101 | 0.00501 |  |  |  |  | Cc1cc(NC[C@H]2CCCN(C(C)c3ccc4c(n3)OCCO4)C2)nc(C)n1 (stereo partly drawn) [Product 157] |
| 69 | 0.0316 | 99 | 0.00316 |  |  |  |  | Cc1cc(CO[C@H]2CCCN(C(C)c3nc4c(cc3F)OCCO4)C2)cc(C)n1 (stereo partly drawn) [Product 168] |
| 78 | 0.126 | 99 | 0.0398 |  |  |  |  | COC1CCN(C(C)c2ccc3c(n2)OCCO3)CC1Cc1cc(C)nc(C)c1 (stereo not drawn) [Product 172] |
| 64 | 0.631 | 99 | 0.0631 |  |  |  |  | Cc1cc(CC2CN(C(C)c3ccc4c(n3)OCCO4)CCC2O)cc(C)n1 (stereo not drawn) [Product 173] |
| 92 | 0.00158 | 101 | 0.00398 |  |  |  |  | Cc1cc(NC[C@H]2CCCN(C(C)c3nc4c(cc3F)OCCO4)C2)cc(C)n1 (stereo partly drawn) [Product 181] |
| 106 | 0.00158 | 99 | 0.00398 |  |  |  |  | COc1cc(NC[C@H]2CCCN(C(C)c3nc4c(cc3F)OCCO4)C2)cc(C)n1 (stereo partly drawn) [Product 182] |
| 65 | 0.0501 | 100 | 0.0158 |  |  |  |  | Cc1cc(C2CCCN(C(C)c3ccc4c(n3)OCCO4)C2)c(F)c(C)n1 (stereo not drawn) [Product 185] |
| 92 | 0.0126 | 96 | 0.00794 |  |  |  |  | Cc1cc(C2CCCN(C(C)c3nc4c(cc3F)OCCO4)C2)cc(C(F)F)n1 (stereo not drawn) [Product 187] |
| 79 | 0.1 | 102 | 0.01 |  |  |  |  | Cc1cc(C2CCCN(C(C)c3ccc4c(n3)OCCO4)C2)cc(C(F)F)n1 (stereo not drawn) [Product 188] |
| 88 | 0.0158 | 100 | 0.00794 |  |  |  |  | Cc1cc(C2CCCN(C(C)c3nc4c(cc3F)OCCO4)C2)c(F)c(C)n1 (stereo not drawn) [Product 189] |
| 82 | 0.0501 | 101 | 0.01 |  |  |  |  | Cc1cc(C2CCCN(C(C)c3cc4c(cc3F)NCCO4)C2)cc(C)n1 (stereo not drawn) [Product 190] |
| 81 | 0.0158 | 95 | 0.00501 |  |  |  |  | Cc1cc(OC[C@H]2CCCN(C(C)c3cc4c(cc3F)NCCO4)C2)cc(C)n1 (stereo partly drawn) [Product 191] |
| 91 | 0.02 | 99 | 0.00631 |  |  |  |  | COc1cc(N[C@H]2CCCN(C(C)c3ccc4c(n3)OCCO4)C2)cc(C)n1 (stereo partly drawn) [Product 192] |
| 95 | 0.0316 | 99 | 0.00316 |  |  |  |  | Cc1cc(CN[C@H]2CCCN(C(C)c3nc4c(cc3F)OCCO4)C2)cc(C)n1 (stereo partly drawn) [Product 193] |
| 71 | 0.251 | 97 | 0.02 |  |  |  |  | Cc1cc(CN[C@H]2CCCN(C(C)c3ccc4c(n3)OCCO4)C2)cc(C)n1 (stereo partly drawn) [Product 194] |
| 112 | 0.0794 | 100 | 0.0158 |  |  |  |  | CC(c1nc2c(cc1F)OCCO2)N1CCC[C@@H](CNc2ccc(F)cc2)C1 (stereo partly drawn) [Product 195] |
| 70 | 0.251 | 95 | 0.0398 |  |  |  |  | CC(c1nc2c(cc1F)OCCO2)N1CCC[C@H](NCc2ccc(F)cc2)C1 (stereo partly drawn) [Product 196] |
| 66 | 0.631 | 98 | 0.398 |  |  |  |  | CC(c1ccc2c(n1)OCCO2)N1CCC[C@H](NCc2ccc(F)cc2)C1 (stereo partly drawn) [Product 197] |
| 82 | 0.398 | 94 | 0.0398 |  |  |  |  | COc1cc(CN[C@H]2CCCN(C(C)c3ccc4c(n3)OCCO4)C2)cc(C)n1 (stereo partly drawn) [Product 198] |
